We go through one compound from US20050214367A1, “Processes for making coated phytochemicals and tocopherols and products formed therefrom” (priority 2004, published 2005).

For data set [1] the following is noted: uncoated feed powder.
A short description of data set [2]: Screen (mesh) particle size analysis. The class given is physicochemical. The following applies: uncoated feed powder.
The conditions of data set [3]: uncoated feed powder. The source holds these as a separate data set.

`Cc1c(C)c2c(c(C)c1OC(=O)CCC(=O)O)CC[C@@](C)(CCC[C@H](C)CCC[C@H](C)CCCC(C)C)O2` [succinate (vitamin E), tocopherol succinate]: the moisture content in data set [1] worked out at 0.06 % by weight. For the same compound, the mean particle size entry in data set [2] is listed as “about 200 mesh”. This compound also yielded a loose bulk density in data set [3] of 0.38 g/cc.
